In ChEMBL document CHEMBL1201862, “PubChem BioAssay data set” (2004):
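Exposure lasted 48 hours, with cells grown in 96-well plates and compounds tested at five concentrations. Abbreviation: GI50, concentration required for 50% inhibition of growth.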 Calls of active or inactive are those of the source. Cut-off read from the data, not from the text of the source: active = GI50 up to about 1.1 µM and inactive = higher.

Experiments:
Experiment in all cases: DTP human tumour cell line panel, 48 h
COLO 205 = system: COLO 205
EKVX = system: EKVX
HL-60 = system: HL-60
HOP-92 = system: HOP-92
KM12 = system: KM12
NCI-H460 = system: NCI-H460
NCI-H522 = system: NCI-H522
OVCAR-5 = system: OVCAR-5
RPMI-8226 = system: RPMI-8226
RXF 393 = system: RXF 393
SF-539 = system: SF-539
SN12C = system: SN12C
SNB-75 = system: SNB-75
DLD-1 = system: DLD-1
DMS-114 = system: DMS-114
DMS-273 = system: DMS-273
M19-MEL = system: M19-MEL
Malme-3M = system: Malme-3M
NCI-H226 = system: NCI-H226
XF498 = system: XF498

Measured: GI50

NC(CCCCCP(=O)(c1ccccc1)C1C=CC=CC1)C(=O)O (stereo unspecified)
inactive: COLO 205 > 100 µM | EKVX > 100 µM | HL-60 > 100 µM | HOP-92 > 100 µM | KM12 > 100 µM | NCI-H460 > 100 µM | NCI-H522 > 100 µM | OVCAR-5 > 100 µM | RPMI-8226 > 100 µM | RXF 393 > 100 µM | SF-539 > 100 µM | SN12C > 100 µM | SNB-75 > 100 µM

CCOC(=O)C12CCC(=O)C=C1[C@@H](C)C(=O)CC2 (stereo partly specified)
inactive: COLO 205 > 100 µM | DLD-1 > 100 µM | DMS-114 > 100 µM | DMS-273 > 100 µM | EKVX > 100 µM | HL-60 > 100 µM | HOP-92 93.3 µM | KM12 > 100 µM | M19-MEL > 100 µM | Malme-3M > 100 µM | NCI-H226 > 100 µM | NCI-H460 > 100 µM | OVCAR-5 > 100 µM | RPMI-8226 > 100 µM | RXF 393 > 100 µM | SN12C > 100 µM | SNB-75 > 100 µM | XF498 > 100 µM

NCc1ccccc1C1CSCSC1
inactive: DLD-1 > 100 µM | DMS-114 > 100 µM | DMS-273 > 100 µM | HL-60 > 100 µM | KM12 > 100 µM | M19-MEL > 100 µM | Malme-3M > 100 µM | NCI-H226 > 100 µM | NCI-H460 > 100 µM | NCI-H522 > 100 µM | RXF 393 39.8 µM | SF-539 > 100 µM | SN12C > 100 µM | SNB-75 > 100 µM | XF498 > 100 µM
